Measurements reported in PMC6026317, “Molecular elements in FGF19 and FGF21 defining KLB/FGFR activity and specificity” (Molecular Metabolism, 2018).
One block for each substance: values may come before it. Ends that are not written are not given here.

Experiments:
[1] = tested on: FGF21-induced ERK phosphorylation in human KLB overexpressing 293T HEK cells (293/KLB); assay: Peptide antagonism of FGF21-induced pERK, AlphaLISA; assay type: cell-based; conditions: 293/KLB cells; fixed dose of FGF21, 10 min at 37° C; n = 3
Procedure: (§1) 293T HEK cells expressing KLB (or KL) or Hep3B cells were plated to 5–6 x 10^4 cells/well density in 96-well cell culture plate coated with poly-D-Lysine (Corning). The cells were serum starved for four hours in 0.1% BSA fraction V (ThermoFisher) containing media prior to treatment with protein and/or an antagonist peptide at the mentioned concentrations for 10 min at 37° C. For the antagonist assays, a chosen fixed dose within the range of 0.8–30 nM (depending on the cell type) of FGF21 or FGF19 stimulant was added to all the wells. BaF3 cells expressing human KLB/FGFR1c or human KLB/FGFR4-1c chimera were seeded at 5 × 10^5 cells/well density in 96-well cell culture plate and serum-starved overnight. FGF21/19 analogs were diluted in 0.02% Tween-20 containing RPMI1640 medium and the cells were treated for 15 min at 37° C. Following the respective cell treatments, the cells were lysed (with lysis buffer provided in the kit) for 10 min at room temperature on a shaker and the lysate was mixed with reaction mixture (consisting of reaction buffer, activation buffer, acceptor and donor beads provided in the kit). Phosphorylated ERK1/2 (pERK) levels were subsequently recorded by EnSpire Alpha or Envision Multilabel plate reader (Perkin Elmer). The cell assays corresponding to 293/KLB or Hep3B cells were carried out with AlphaLISA SureFire Ultra pERK1/2 (Thr 202/Tyr204) kit (Perkin Elmer), and BaF3 cells were done using AlphaScreen pERK1/2 (Thr202/Tyr204) kit (Perkin Elmer).
All cellular phosphorylation data were analyzed using 3-parameter non-linear regression curve in GraphPad Prism 7. Graphs are represented as relative maximal (100%) response of the positive control. All other test analog signals were adjusted accordingly as % values. For antagonistic assays, the difference between the p-ERK signal at baseline (fixed dose of FGF-stimulation, no antagonist peptide added) and the highest dose of the positive control, either FGF21^18−181, 21C25 or 19C26 for respective assay, was set to 100%. Similarly, for an agonist assay, the difference between the p-ERK signal of baseline (only cell culture medium, no agonist) and the highest dose of the positive control either FGF21 in 293/KLB cells or FGF19 in Hep3B cells was used to establish 100% response. Each peptide and protein analog was tested in triplicates in three independent experiments (n = 3), and normalized graphs plotted are expressed as mean ± SD unless otherwise noted.
The C-terminal region of FGF21 binds to KLB as previously implied by FGF21^18−181 antagonism. […] For comparative purposes, we utilized an in vitro assay in which we monitored dose-dependent attenuation of FGF-induced ERK phosphorylation in human KLB overexpressing 293T HEK cells (293/KLB).

[2] = tested on: FGF19 signaling in 293/KLB cells; assay: Peptide antagonism of FGF19-induced pERK, AlphaLISA; assay type: cell-based, human; conditions: fixed dose of FGF19, 10 min at 37° C, n = 3
Procedure: as §1, with “Following the respective cell treatments, the cells were lysed (with lysis buffer provided in the kit) for 10 min at room temperature on a shaker and the lysate was mixed with reaction mixture (consisting of reaction buffer, activation buffer, acceptor and donor beads provided in the kit).” left out, “The cell assays corresponding to 293/KLB or Hep3B cells were carried out with AlphaLISA SureFire Ultra pERK1/2 (Thr 202/Tyr204) kit (Perkin Elmer), and BaF3 cells were done using AlphaScreen pERK1/2 (Thr202/Tyr204) kit (Perkin Elmer).” left out
(§2) All cellular phosphorylation data were analyzed using 3-parameter non-linear regression curve in GraphPad Prism 7. […] Each peptide and protein analog was tested in triplicates in three independent experiments (n = 3), and normalized graphs plotted are expressed as mean ± SD unless otherwise noted.

lean (C57BL/6J) mice = assay: In vivo peptide antagonism study, cFos and EGR1 mRNA in pancreas and eWAT; set-up: species or system mouse; conditions: WAT and pancreas
Text: All animal studies were approved by and performed according to the guidelines of the Institutional Animal Care and Use Committee of the University of Cincinnati (Cincinnati, USA). Eight-week old male C57BL/6J mice (Jackson Laboratories) were given ad libitum access to either a chow diet (lean mice), or a high-fat high-sugar diet (HFD, DIO mice) containing 58% kcal from fat (Research Diets, catalog# D12331). For DIO mice, animals were maintained on the HFD for a minimum of 3 months prior to initiation of the pharmacological studies. The mice were maintained at 22 °C on a 12-h light–dark cycle with free access to water. Before the beginning of the studies, mice were randomized into treatment groups according to body weight. All injections and tests were performed during the light cycle with a group size of n = 8.
Mice were administered vehicle, FGF21 (1 mg/kg), or FGF19 (1 mg/kg) alone or in combination with 19C26,A^26 (30 mg/kg), (dosed 15 min prior to FGF21 or FGF19 administration) via sc injections. One-hour post FGF21 or FGF19 dosing, the mice were sacrificed and their plasma, pancreas, and epididymal white adipose tissue (eWAT) were harvested for analyses. Total RNA was isolated from pancreatic and eWAT tissues using Trizol phenol-chloroform extraction (Invitrogen, Cat#155596026) and purified using an RNeasy mini (Cat#74104) and on-column DNAse digest (Cat#79254) kits (Qiagen). Following reverse transcription, levels of cFos and early growth response-1 (EGR1) mRNA levels were subsequently probed by quantitative PCR (ThermoFisher) and analyzed by ΔΔCT method.
Statistical analyses for in vivo experiments were performed on data using a one- (Figure 5A,B and 5D) or two-way (Figure 5C) ANOVA followed by Tukey post hoc multiple comparison analysis. All results are presented as mean ± SEM, n = 5–8, and P < 0.05 was considered significant. Group size estimations were based upon a power calculation to minimally yield an 80% chance to detect a significant difference in body weight of P < 0.05.

[3] = tested on: FGF19 signaling in Hep3B cells; assay: Peptide antagonism of FGF19 signaling in Hep3B cells; assay type: cell-based, human; conditions: n = 3
Procedure: as §1, with “Following the respective cell treatments, the cells were lysed (with lysis buffer provided in the kit) for 10 min at room temperature on a shaker and the lysate was mixed with reaction mixture (consisting of reaction buffer, activation buffer, acceptor and donor beads provided in the kit).” left out, “The cell assays corresponding to 293/KLB or Hep3B cells were carried out with AlphaLISA SureFire Ultra pERK1/2 (Thr 202/Tyr204) kit (Perkin Elmer), and BaF3 cells were done using AlphaScreen pERK1/2 (Thr202/Tyr204) kit (Perkin Elmer).” left out
as §2

[4] = tested on: signaling of FGF1 in 293/KLB cells; assay: Peptide antagonism of FGF1 signaling in 293/KLB cells; assay type: cell-based, human; conditions: data not shown
[5] = tested on: signaling of FGF23 in 293/KL cells overexpressing human Klotho; assay: Peptide antagonism of FGF23 signaling in 293/KL cells; assay type: cell-based; conditions: data not shown
293/KLB cells = assay: Agonist pERK AlphaLISA assay in 293/KLB cells; assay type: cell-based, human; conditions: 10 min at 37° C, n = 3
Procedure: as §1
as §2, with “7. Graphs are represented as relative maximal (100%) response of the positive control. All other test analog signals were adjusted accordingly as % values.” for “7.”

human FGFR1c/KLB = target: T1, human FGFR1c/KLB (Homo sapiens, UniProt P11362+Q86Z14); assay: AlphaScreen cell-free binding assay, displacement of biotinylated FGF21; conditions: peptides compete with FGF21 for human FGFR1/KLB complex, mean, n = 2, NC = Not Calculated due to negligible activity at the tested concentrations
T1 construct: while adding human soluble KLB generated a signal; purchased R&D Systems
T1 sequence (Q86Z14 1-996 limits assumed): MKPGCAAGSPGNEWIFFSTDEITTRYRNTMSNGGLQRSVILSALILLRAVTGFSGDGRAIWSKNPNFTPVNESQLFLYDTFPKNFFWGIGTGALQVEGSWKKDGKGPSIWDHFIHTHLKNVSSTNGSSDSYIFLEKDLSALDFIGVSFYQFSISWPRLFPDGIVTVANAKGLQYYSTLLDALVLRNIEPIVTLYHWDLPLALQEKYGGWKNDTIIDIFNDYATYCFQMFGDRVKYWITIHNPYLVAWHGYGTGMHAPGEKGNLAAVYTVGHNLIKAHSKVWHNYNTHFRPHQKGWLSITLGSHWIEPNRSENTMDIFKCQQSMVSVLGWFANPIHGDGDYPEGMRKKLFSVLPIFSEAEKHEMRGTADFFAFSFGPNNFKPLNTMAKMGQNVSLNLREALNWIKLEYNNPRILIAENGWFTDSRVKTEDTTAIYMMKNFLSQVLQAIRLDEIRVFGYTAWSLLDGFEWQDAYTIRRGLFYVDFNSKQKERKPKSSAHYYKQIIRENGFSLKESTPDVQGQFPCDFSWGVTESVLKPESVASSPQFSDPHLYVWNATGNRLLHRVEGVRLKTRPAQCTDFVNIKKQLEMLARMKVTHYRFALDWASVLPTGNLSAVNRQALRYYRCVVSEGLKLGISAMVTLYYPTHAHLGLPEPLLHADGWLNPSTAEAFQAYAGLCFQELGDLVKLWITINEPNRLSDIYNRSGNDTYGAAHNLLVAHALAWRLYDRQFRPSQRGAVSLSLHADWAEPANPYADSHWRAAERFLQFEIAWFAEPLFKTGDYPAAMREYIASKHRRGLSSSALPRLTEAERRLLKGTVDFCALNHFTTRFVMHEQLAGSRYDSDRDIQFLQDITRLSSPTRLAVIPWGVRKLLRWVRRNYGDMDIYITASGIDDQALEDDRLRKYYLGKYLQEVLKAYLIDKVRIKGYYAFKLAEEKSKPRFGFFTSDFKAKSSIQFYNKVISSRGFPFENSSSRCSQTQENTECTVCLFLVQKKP
T1 sequence (P11362 22-376 partner limits assumed): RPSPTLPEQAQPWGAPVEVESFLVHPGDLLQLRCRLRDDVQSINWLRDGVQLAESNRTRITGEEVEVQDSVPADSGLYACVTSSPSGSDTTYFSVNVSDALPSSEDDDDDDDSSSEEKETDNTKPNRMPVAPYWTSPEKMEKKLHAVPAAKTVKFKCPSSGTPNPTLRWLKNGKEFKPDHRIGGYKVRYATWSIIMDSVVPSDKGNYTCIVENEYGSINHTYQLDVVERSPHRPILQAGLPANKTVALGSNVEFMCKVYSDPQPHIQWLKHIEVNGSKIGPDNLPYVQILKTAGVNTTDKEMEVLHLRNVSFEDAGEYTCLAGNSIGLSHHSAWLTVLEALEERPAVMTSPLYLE
Procedure: Biotinylated FGF21 was coupled to Streptavidin-coated donor beads (AlphaScreen technology, Perkin Elmer), and the ectodomains of human FGFR4 fused to Fc (R&D Systems) or FGFR1c fused to Fc (R&D Systems) were coupled to Protein A acceptor beads (AlphaScreen technology, Perkin Elmer). Human KLB protein (R&D Systems) was added to the mixture of biotinylated-FGF21-Streptavidin donor beads and FGFR-Fc-Protein A acceptor beads, bringing the beads in close proximity producing a signal, in the presence of 5 μg/ml Heparin and 0.1% BSA. Increasing doses of FGF21 C-terminal peptides were added and if their binding to the receptor complex were to take place, the biotinylated FGF21 would be displaced to consequently decrease the signal. The EnVision Multilabel Plate Reader (Perkin Elmer) was used to quantify the emitted light signal at 570 nm.
Supplementary file mmc1.pdf: Multimedia component 1 Table S1. Nomenclature for FGF protein and C-terminal peptide analogs. Table S2. Receptor binding of C-terminal FGF21 Ala-scan peptides. IC50 values (μM, mean, n = 2) with fold-change for 21C25 Ala-scan peptides versus native peptide in a cell free AlphaScreen binding assay where the 21C25 Ala peptides competed with FGF21 to associate with the human FGFR1/KLB complex. NC denotes where IC50 values were Not Calculated due to negligible activity at the tested concentrations.

Substance: 19C25: FGF19-based C-terminal peptide of 25 amino acids (LETDSMDPFGLVTGLEAVRSPSFEK-NH2)
Antagonism of FGF21 signaling (pERK), in words [1]: comparable to FGF21^18−181 in their antagonistic effect

Substance: 19C26,A^26: 19C26 with alanine substitution of the terminal lysine; most potent peptide antagonist (PLETDSMDPFGLVTGLEAVRSPSFEA-NH2)
Antagonism of FGF21 signaling (pERK), in words [1]: at least twenty-fold greater potency
Antagonism of FGF19 signaling (pERK), in words [2]: at least twenty-fold greater potency
cFos and EGR1 mRNA levels, peptide antagonist alone (lean (C57BL/6J) mice; 30 mg/kg sc): no effect on cFos and EGR1 mRNA levels
Block of FGF19- or FGF21-stimulated cFos and EGR1 gene induction (lean (C57BL/6J) mice; antagonist 30 mg/kg sc 15 min before FGF19 or FGF21 1 mg/kg sc, one hour post dosing): completely eliminated the ability of FGF19 or FGF21 to stimulate gene induction

Substance: 19C26: FGF19-based C-terminal peptide of 26 amino acids (169-194), C-terminal amide (PLETDSMDPFGLVTGLEAVRSPSFEK-NH2)
Antagonism of FGF19 signaling (pERK), in words [3]: blocked FGF19 activity comparably to that of FGF21
Attenuation of FGF1 signaling, in words [4]: unable to attenuate signaling of FGF1
Antagonism of FGF21 signaling (pERK), in words [1]: comparable to FGF21^18−181 in their antagonistic effect
Attenuation of FGF23 signaling, in words [5]: unable to attenuate signaling
Antagonism of FGF19 signaling (pERK), in words [2]: blocked FGF19 activity comparably to that of FGF21

Substance: 21C22: C-terminal FGF21 peptide of 22 residues (VGSSDPLSMVGPSQGRSPSYAS-NH2; UniProt Q9NSA1 188-209, looked up, fragment)
Antagonism of FGF21 signaling (pERK), in words [1]: had no effect within the dose range examined

Substance: FGF2
pERK agonist activity, in words (293/KLB cells): picomolar activities

Substance: FGF19: Human FGF19 (#O95750: 23–216, designated 1–194)
pERK agonist activity, in words (293/KLB cells): nanomolar potencies
cFos and EGR1 transcriptional activity, FGF alone (lean (C57BL/6J) mice; 1 mg/kg sc, one hour): induced robust transcriptional activity in each tissue

IC50 (human FGFR1c/KLB): 150 nM
Substance: PPDVGSSDPLSMVGPSQARSPSYAS-NH2 [174 G]

IC50 (human FGFR1c/KLB): 50 nM
Substance: PPDVGSSDPLSMVGPSQGASPSYAS-NH2 [175 R]

IC50 (human FGFR1c/KLB): 50 nM
Substance: PPDVGSSDPLSMVGPSQGRSPSYAA-NH2 [181 S]

IC50 (human FGFR1c/KLB): 150 nM
Substance: PPDVGSSDPLSMVGPSQGRSPSYAS-NH2 [21C25]
